Data taken from article PMC13430218 (Clinical Cancer Research, 2026).

Test: Plasma pharmacokinetics of rogocekib, LC-MS/MS, noncompartmental
Type: in vivo, human
Procedure: For other patients in the expansion cohort, peripheral blood samples were collected before and after the dose at 2 and 6 hours on day 1 of cycle 1, and before dose of day 1 in cycles 2 and 4.
Descriptive statistics such as medians, standard deviations, and ranges were calculated. The Kaplan–Meier method was utilized for OS and PFS analysis. PK/PD parameters were assessed using a noncompartmental approach. Exploratory biomarkers were assessed through descriptive statistics.

In the case of `COc1ncnn2ccc(-c3cnc4nc(C)n(Cc5nnc([C@@H](C)F)o5)c4c3)c12` [rogocekib, Rogocekib], the “Tmax, median (min, max)” value (Cohort A 10 mg twice weekly, n = 1, cycle 1 day 1, oral) is reported as 2 (2, 2) hours and the “AUC0–24 hours, geometric mean (%CV)” value (Cohort A 140 mg twice weekly, n = 6, cycle 1 day 1, oral) is reported as 5,823.618 (22.2) hours·ng/mL.
